Measured values published in patent US10351589B2, “3α-ethynyl, 3β-hydroxy-5α-pregnan-20-oxime for use in the treatment of CNS disorders” (Umecrine Cognition AB, priority 2015, dated 2019).

How the values were obtained:
Type in all cases: cell-based
[1] = target: T1, α5β3γ2L GABAA receptor (Homo sapiens, UniProt P18507+P28472+P31644); experiment: Example 3: comparative patch clamp test of compound and epimer, change in chloride flow through α5β3γ2L GABAA receptor; conditions: for action on the GABA receptor subunit alpha 5: summary of Table 4
T1 construct: expressed in transfected cells; host or cells: HEK-293 (permanently transfected)
T1 sequence (P31644 32-462): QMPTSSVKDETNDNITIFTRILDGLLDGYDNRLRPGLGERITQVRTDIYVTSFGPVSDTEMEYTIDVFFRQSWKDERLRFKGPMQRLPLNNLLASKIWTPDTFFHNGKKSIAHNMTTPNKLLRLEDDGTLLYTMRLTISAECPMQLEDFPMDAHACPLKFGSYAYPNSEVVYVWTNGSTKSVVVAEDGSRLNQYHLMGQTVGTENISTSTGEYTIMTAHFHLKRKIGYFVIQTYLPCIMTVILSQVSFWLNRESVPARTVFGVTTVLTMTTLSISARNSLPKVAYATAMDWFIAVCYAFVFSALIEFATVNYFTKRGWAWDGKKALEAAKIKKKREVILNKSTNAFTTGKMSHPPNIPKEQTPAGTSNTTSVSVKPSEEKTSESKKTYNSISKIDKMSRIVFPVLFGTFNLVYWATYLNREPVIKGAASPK
T1 sequence (P28472 26-473): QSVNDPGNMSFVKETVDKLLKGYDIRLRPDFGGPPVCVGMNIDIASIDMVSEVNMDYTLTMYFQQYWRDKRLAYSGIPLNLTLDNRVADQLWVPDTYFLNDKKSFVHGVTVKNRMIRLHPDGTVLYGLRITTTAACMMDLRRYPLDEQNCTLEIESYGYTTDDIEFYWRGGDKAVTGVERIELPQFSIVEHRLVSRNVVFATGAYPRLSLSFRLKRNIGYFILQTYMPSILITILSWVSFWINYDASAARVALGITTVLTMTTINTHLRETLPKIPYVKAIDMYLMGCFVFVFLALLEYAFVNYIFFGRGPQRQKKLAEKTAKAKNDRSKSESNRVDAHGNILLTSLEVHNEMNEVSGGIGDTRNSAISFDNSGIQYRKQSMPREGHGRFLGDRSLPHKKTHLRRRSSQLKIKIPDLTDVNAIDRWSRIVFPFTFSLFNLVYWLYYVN
T1 sequence (P18507 40-475): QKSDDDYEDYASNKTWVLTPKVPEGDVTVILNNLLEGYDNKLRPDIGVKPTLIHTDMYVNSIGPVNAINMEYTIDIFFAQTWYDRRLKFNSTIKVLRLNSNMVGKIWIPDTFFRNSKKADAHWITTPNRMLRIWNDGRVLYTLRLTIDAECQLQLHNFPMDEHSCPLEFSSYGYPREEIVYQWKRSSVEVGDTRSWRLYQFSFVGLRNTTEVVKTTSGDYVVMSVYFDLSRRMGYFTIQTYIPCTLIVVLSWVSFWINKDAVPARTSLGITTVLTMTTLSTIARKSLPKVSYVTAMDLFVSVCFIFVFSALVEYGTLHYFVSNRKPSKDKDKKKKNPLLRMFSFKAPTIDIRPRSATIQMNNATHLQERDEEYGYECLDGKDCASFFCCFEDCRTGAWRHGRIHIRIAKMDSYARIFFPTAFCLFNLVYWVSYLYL
Excerpt: (§1) HEK-293 cells, permanently transfected with the human α1β2γ2 GABAA and α5β3γ2 GABAA receptor expressing functional α1β2γ2L and α5β3γ2L GABAA receptors were used. The cell lines permanently expressing a functional human GABAA receptor was made in following steps. The GABAA receptor subunits α1(308-1727 NM_000806), β2 (214-1679 NM_000813), and γ2L (290-1785 NM_198904) including introduced Kozac sequences just before the start codons were subcloned into mammalian expression vectors containing Geneticin, Hygromycin B, and Zeocin resistance, respectively. A HEK-293 cell line stably expressing the three GABAA receptor subunits was produced by transfection of the subunits one at a time. The transfection was followed by selection with the appropriate antibiotics, cell separation with the use of subunit specific antibodies (β2 and γ2), and production of single cell colonies. Produced cell lines were analysed with immunocytochemistry for the three GABAA receptor subunits, followed by selection of a suitable cell line showing for the GABAA receptor normal and good reactivity in a patch-clamp analysis (see below) towards GABA and the GAMS tetrahydrodeoxycorticosterone (THDOC).
(§2) Experiments were carried out to investigate the effect of 3α-ethynyl, 3β-hydroxy, 5α-pregnan-20-oxime on the GABAA receptor function in absence and in presence of the GAMS Tetrahydrodeoxycorticosterone (THDOC) by the Dynaflow™ system on HEK-293 cells. In these tests the protocol was optimized to be similar to the physiological conditions in the synaptic cleft.
(§3) Cell culture: HEK-293 cells, permanently transfected with human α1β2γ2 GABAA and α5β3γ2 GABAA receptor subtypes, were seeded at a density of 3×10^4/25 cm^2 in cellbind culture flask. The transfected cells were used for patch-clamp experiments 3 days after seeding. When using the cells for patch-clamp experiments the cells were washed twice with O2 bubbled EC-solution (see below). About 5 mL EC was then added and the cells were kept in the incubator for about 15 minutes. After 15 minutes the cells come loose from the bottom of the flask and were separated by carefully sucking couple of times with a Pasteur pipette.
(§4) Dynaflow™ system: Dynaflow™ system with resolve chips was used for all patch-clamp experiments. The resolve chips is made of non-sticky materials. The channel width is 150 μm and the height 50 μm. The well volume is 280 μL. Run time at the flow rate of […]. is […]. The pump settings were as follow: Omnifix 2 mL syringe with inner diameter of 9.65 mm was used. The syringe pump flow rate of chip was 26 μL/min.
Electrophysiology: Patch electrodes were pulled from 1.5 mm O.D., 0.86 mm I.D. borosilicate capillary glass without filament. […] The intracellular solution consisted of (in mM): 140 Cs-gluconate, 3.0 NaCl, 1.2 MgCl2, 1.0 EGTA, 10 HEPES. pH was adjusted to 7.2 with CsOH. The extracellular (EC) solution used during recordings contained (in mM): 137 NaCl, 5.0 KCl, 1.0 CaCl2, 1.2 MgCl2, 10 HEPES, 10 glucose. pH was adjusted with NaOH to 7.4. After compensating for the liquid junction potential a steady holding potential of −17 mV was used in all experiments. In physiological conditions the HEK-293 has a resting potential at −40 mV and a low concentration of chloride ions inside the cell. By using the holding potential of −17 mV and the intracellular solution with low chloride ion concentration the chloride ions flux into the cell when the receptors are activated. All experiments were performed at room temperature (21 to 23° C.). A standard protocol was used for all experiments.
GABA applications: By using the Dynaflow equipment it is possible to study transfected HEK-293 during almost physiological conditions. The Dynaflow system allows application of solutions for as short as 40 ms up to minutes in time. Physiologically, in the synaptic cleft, GABA is released in mM range for about 2 ms this is valid for alpha1 receptors. […]

[2] = target: T1, α5β3γ2L GABAA receptor; experiment: Patch clamp (Dynaflow) current response mediated by chloride ion flux, α5β3γ2L GABAA receptor in HEK-293 cells; conditions: for Relative effect Mean (%) / Relative effect Median: 200 nM THDOC + 0.3 μM GABA, control set to 0
Excerpt: as §1, §2, §3, §4
(§5) Steroids and GABA: GABA was dissolved in EC-solution by ultrasound for about 40 minutes to the concentration of 10 mM in room temperature. All steroids were dissolved to the concentration of 6 mM in ethanol. The ethanol concentration was 0.1% in all end-solutions, including the wash solution (EC) and the solution with GABA alone. End-solutions are the solutions added into the wells of the chip.
(§6) Electrophysiology: Patch electrodes were pulled from 1.5 mm O.D., 0.86 mm I.D. borosilicate capillary glass without filament. […] The intracellular solution consisted of (in mM): 140 Cs-gluconate, 3.0 NaCl, 1.2 MgCl2, 1.0 EGTA, 10 HEPES. pH was adjusted to 7.2 with CsOH. The extracellular (EC) solution used during recordings contained (in mM): 137 NaCl, 5.0 KCl, 1.0 CaCl2, 1.2 MgCl2, 10 HEPES, 10 glucose. pH was adjusted with NaOH to 7.4. After compensating for the liquid junction potential a steady holding potential of −17 mV was used in all experiments. In physiological conditions the HEK-293 has a resting potential at −40 mV and a low concentration of chloride ions inside the cell. By using the holding potential of −17 mV and the intracellular solution with low chloride ion concentration the chloride ions flux into the cell when the receptors are activated. All experiments were performed at room temperature (21 to 23° C.). A standard protocol was used for all experiments. […]

[3] = target: T2, human α1β2γ2L GABAA receptor (Homo sapiens, UniProt P14867+P18507+P47870); experiment: Patch clamp (Dynaflow) current response mediated by chloride ion flux, α1β2γ2L GABAA receptor in HEK-293 cells
T2 construct: expressed in transfected cells
T2 sequence (P14867 28-456): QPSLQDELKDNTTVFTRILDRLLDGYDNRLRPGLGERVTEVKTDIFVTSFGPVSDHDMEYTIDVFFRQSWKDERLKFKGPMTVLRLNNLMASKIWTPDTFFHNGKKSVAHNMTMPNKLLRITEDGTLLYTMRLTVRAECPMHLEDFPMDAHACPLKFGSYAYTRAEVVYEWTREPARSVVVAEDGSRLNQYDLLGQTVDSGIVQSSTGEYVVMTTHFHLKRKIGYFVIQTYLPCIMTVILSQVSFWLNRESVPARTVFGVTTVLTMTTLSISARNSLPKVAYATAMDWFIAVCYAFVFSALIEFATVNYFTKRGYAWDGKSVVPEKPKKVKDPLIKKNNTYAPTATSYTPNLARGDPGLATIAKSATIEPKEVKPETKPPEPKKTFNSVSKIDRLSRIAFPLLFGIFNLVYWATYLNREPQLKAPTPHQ
T2 sequence (P47870 26-474 isoform P47870-1 limits assumed): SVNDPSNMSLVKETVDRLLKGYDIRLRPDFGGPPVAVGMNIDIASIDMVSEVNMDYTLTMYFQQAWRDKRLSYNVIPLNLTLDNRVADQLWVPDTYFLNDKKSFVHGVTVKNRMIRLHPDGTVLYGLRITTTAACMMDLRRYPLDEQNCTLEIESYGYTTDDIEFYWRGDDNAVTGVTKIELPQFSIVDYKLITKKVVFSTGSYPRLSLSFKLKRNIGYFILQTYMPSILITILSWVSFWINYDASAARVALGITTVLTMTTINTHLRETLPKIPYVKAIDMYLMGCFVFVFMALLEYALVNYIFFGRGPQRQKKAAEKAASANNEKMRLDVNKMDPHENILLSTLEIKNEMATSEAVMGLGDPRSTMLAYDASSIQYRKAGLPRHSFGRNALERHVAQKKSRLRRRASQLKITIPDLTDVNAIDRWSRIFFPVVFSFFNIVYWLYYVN
T2 sequence (P18507 40-475): as the sequence (P18507 40-475) above
Excerpt: as §1, §2, §3, §4, §5, §6

C#C[C@@]1(O)CC[C@@]2(C)[C@@H](CC[C@@H]3[C@@H]2CC[C@]2(C)[C@@H](C(C)=NO)CC[C@@H]32)C1 [Comparator, 3β-ethynyl, 3α-hydroxy, 5α-pregnan-20-oxime]
Mean % (SEM) Compound + GABA, change in chloride flow ([1]; 1 μM steroid, α5β3γ2L): +210 (23) % | Mean % (SEM) Compound + THDOC + GABA, change in chloride flow ([1]; 1 μM steroid, α5β3γ2L): +80 (8) % | Mean % (SEM) Compound + THDOC, change in chloride flow ([1]; 1 μM steroid, α5β3γ2L): +128 (22) % | Mean % (SEM) Compound alone, change in chloride flow ([1]; 1 μM steroid, α5β3γ2L): +50 (12) % | mode of action, Compound + GABA ([1]; 1 μM steroid, α5β3γ2L): agonist | mode of action, Compound + THDOC ([1]; 1 μM steroid, α5β3γ2L): agonist | mode of action, Compound + THDOC + GABA ([1]; 1 μM steroid, α5β3γ2L): agonist | mode of action, Compound alone ([1]; 1 μM steroid, α5β3γ2L): agonist | action on the GABA receptor subunit alpha 5 [1]: agonist

C#C[C@]1(O)CC[C@@]2(C)C(CCC3C2CC[C@@]2(C)C3CC[C@@H]2/C(C)=N/O)C1 (stereo partly drawn) [Compound, 3α-ethynyl, 3β-hydroxy, 5α-pregnan-20-oxime]
Relative effect Mean (%) ([2]; 0.1 μM compound): −3.0% | Relative effect Median ([2]; 0.1 μM compound): −1.6 | effect on 200 nM THDOC evoked current (direct activation by GAMS) ([2]; 200 nM THDOC, no GABA): antagonizing effect | Relative effect Mean (%) ([2]; 0.3 μM compound): −6.6% | Relative effect Median ([2]; 0.3 μM compound): −6.9 | Relative effect Mean (%) ([2]; 1 μM compound): −15.2% | Relative effect Median ([2]; 1 μM compound): −11.0 | Relative effect Mean (%) ([2]; 3 μM compound): −20.7% | Relative effect Median ([2]; 3 μM compound): −23.6 | effect on 200 nM GAMS (THDOC) and 0.3 μM GABA evoked currents ([2]; 0.1-3 μM compound): clear concentration dependent antagonizing effect | action on α5β3γ2L receptor subtype ([2]; all tested situations with GAMS and GABA): antagonist | Compound + GABA, current response ([2]; α5β3γ2): −18.8 ± 2.2 | Compound + GAMS + GABA, current response ([2]; α5β3γ2, GAMS = THDOC): −15.2 ± 2.8 | Compound + GAMS, current response ([2]; α5β3γ2, GAMS = THDOC, no GABA): −29.7 ± 6.5 | Compound alone, current response ([2]; α5β3γ2, no GABA, no GAMS): No effect | direct activation of the GABAA receptor in absence of GABA ([3]; 1 μM compound): did not activate | increase of GABA mediated current response ([3]; 1 μM compound, α1β2γ2L): approximately 10% | effect on GABA's opening of the α1β2γ2L GABAA receptor ([3]; compound + GABA): slight agonistic effect | effect of compound alone on chloride flux ([3]; compound alone): no enhancing or antagonizing effect | Compound + GABA, current response ([3]; α1β2γ2L): +11 ± 4 | antagonistic effect against the enhancing effect of THDOC ([3]; α1β2γ2L receptor): no antagonistic effect | Compound + GAMS + GABA, current response ([3]; α1β2γ2L, GAMS = THDOC): No effect | Compound alone, current response ([3]; α1β2γ2L, no GABA, no GAMS): No effect | Mean % (SEM) Compound + GABA, change in chloride flow ([1]; 1 μM steroid, α5β3γ2L): −19 (2) % | Mean % (SEM) Compound + THDOC + GABA, change in chloride flow ([1]; 1 μM steroid, α5β3γ2L): −15 (3) % | Mean % (SEM) Compound + THDOC, change in chloride flow ([1]; 1 μM steroid, α5β3γ2L): −30 (6) % | Mean % (SEM) Compound alone, change in chloride flow ([1]; 1 μM steroid, α5β3γ2L): no effect | mode of action, Compound + GABA ([1]; 1 μM steroid, α5β3γ2L): antagonist | mode of action, Compound + THDOC ([1]; 1 μM steroid, α5β3γ2L): antagonist | mode of action, Compound + THDOC + GABA ([1]; 1 μM steroid, α5β3γ2L): antagonist | action on the GABA receptor subunit alpha 5 [1]: antagonist
